# Test results taken from BigSolDB 2.1.
structure (smiles),measurement,setting,value
O=C(O)CCP(=O)([O-])c1ccccc1.[Na+],solubility (mole fraction),"in acetic acid, 293.15 K",0.0169
same,solubility (mole fraction),"in acetic acid, 298.15 K",0.0205
same,solubility (mole fraction),"in acetic acid, 303.15 K",0.0225
same,solubility (mole fraction),"in acetic acid, 308.15 K",0.0264
same,solubility (mole fraction),"in acetic acid, 313.15 K",0.0283
same,solubility (mole fraction),"in acetic acid, 318.15 K",0.0312
same,solubility (mole fraction),"in acetic acid, 323.15 K",0.0357
same,solubility (mole fraction),"in acetic acid, 328.15 K",0.0404
same,solubility (mole fraction),"in acetic acid, 333.15 K",0.0471
same,solubility (mole fraction),"in acetic acid, 343.15 K",0.062
same,solubility (mole fraction),"in acetone, 293.15 K",7e-05
same,solubility (mole fraction),"in acetone, 298.15 K",0.00011
same,solubility (mole fraction),"in acetone, 303.15 K",0.00016
same,solubility (mole fraction),"in acetone, 308.15 K",0.00024
same,solubility (mole fraction),"in acetone, 313.15 K",0.00035
same,solubility (mole fraction),"in acetone, 318.15 K",0.00051
same,solubility (mole fraction),"in acetone, 323.15 K",0.00075
same,solubility (mole fraction),"in ethanol, 293.15 K",0.00065
same,solubility (mole fraction),"in ethanol, 298.15 K",0.00076
same,solubility (mole fraction),"in ethanol, 303.15 K",0.00095
same,solubility (mole fraction),"in ethanol, 308.15 K",0.00106
same,solubility (mole fraction),"in ethanol, 313.15 K",0.00122
same,solubility (mole fraction),"in ethanol, 318.15 K",0.00166
same,solubility (mole fraction),"in ethanol, 323.15 K",0.00199
same,solubility (mole fraction),"in ethanol, 328.15 K",0.00223
same,solubility (mole fraction),"in ethanol, 333.15 K",0.00273
same,solubility (mole fraction),"in ethanol, 343.15 K",0.00413
same,solubility (mole fraction),"in ethyl acetate, 293.15 K",0.00039
same,solubility (mole fraction),"in ethyl acetate, 298.15 K",0.00051
same,solubility (mole fraction),"in ethyl acetate, 303.15 K",0.000685
same,solubility (mole fraction),"in ethyl acetate, 308.15 K",0.00096
same,solubility (mole fraction),"in ethyl acetate, 313.15 K",0.00117
same,solubility (mole fraction),"in ethyl acetate, 318.15 K",0.00165
same,solubility (mole fraction),"in ethyl acetate, 323.15 K",0.00204
same,solubility (mole fraction),"in ethyl acetate, 328.15 K",0.00285
same,solubility (mole fraction),"in ethyl acetate, 333.15 K",0.00384
same,solubility (mole fraction),"in ethyl acetate, 343.15 K",0.00602
same,solubility (mole fraction),"in methanol, 293.15 K",0.00612
same,solubility (mole fraction),"in methanol, 298.15 K",0.00671
same,solubility (mole fraction),"in methanol, 303.15 K",0.00719
same,solubility (mole fraction),"in methanol, 308.15 K",0.00779
same,solubility (mole fraction),"in methanol, 313.15 K",0.00831
same,solubility (mole fraction),"in methanol, 318.15 K",0.009
same,solubility (mole fraction),"in methanol, 323.15 K",0.00993
same,solubility (mole fraction),"in water, 293.15 K",0.0196
same,solubility (mole fraction),"in water, 298.15 K",0.0201
same,solubility (mole fraction),"in water, 303.15 K",0.0214
same,solubility (mole fraction),"in water, 308.15 K",0.0222
same,solubility (mole fraction),"in water, 313.15 K",0.0232
same,solubility (mole fraction),"in water, 318.15 K",0.0248
same,solubility (mole fraction),"in water, 323.15 K",0.0263
same,solubility (mole fraction),"in water, 328.15 K",0.0277
same,solubility (mole fraction),"in water, 333.15 K",0.0295
same,solubility (mole fraction),"in water, 343.15 K",0.0316
O=C([O-])CCP(=O)([O-])c1ccccc1.[Na+].[Na+],solubility (mole fraction),"in acetic acid, 293.15 K",0.000543
same,solubility (mole fraction),"in acetic acid, 298.15 K",0.000554
same,solubility (mole fraction),"in acetic acid, 303.15 K",0.000569
same,solubility (mole fraction),"in acetic acid, 308.15 K",0.000581
same,solubility (mole fraction),"in acetic acid, 313.15 K",0.000603
same,solubility (mole fraction),"in acetic acid, 318.15 K",0.000626
same,solubility (mole fraction),"in acetic acid, 323.15 K",0.000644
same,solubility (mole fraction),"in acetic acid, 328.15 K",0.000663
same,solubility (mole fraction),"in acetic acid, 333.15 K",0.000703
same,solubility (mole fraction),"in acetic acid, 343.15 K",0.000742
same,solubility (mole fraction),"in acetone, 293.15 K",3.66e-05
same,solubility (mole fraction),"in acetone, 298.15 K",3.89e-05
same,solubility (mole fraction),"in acetone, 303.15 K",4.13e-05
same,solubility (mole fraction),"in acetone, 308.15 K",4.39e-05
same,solubility (mole fraction),"in acetone, 313.15 K",4.62e-05
same,solubility (mole fraction),"in acetone, 318.15 K",4.83e-05
same,solubility (mole fraction),"in acetone, 323.15 K",5.24e-05
same,solubility (mole fraction),"in ethanol, 293.15 K",7.03e-05
same,solubility (mole fraction),"in ethanol, 298.15 K",9.7e-05
same,solubility (mole fraction),"in ethanol, 303.15 K",0.000138
same,solubility (mole fraction),"in ethanol, 308.15 K",0.000197
same,solubility (mole fraction),"in ethanol, 313.15 K",0.000264
same,solubility (mole fraction),"in ethanol, 318.15 K",0.000352
same,solubility (mole fraction),"in ethanol, 323.15 K",0.000505
same,solubility (mole fraction),"in ethanol, 328.15 K",0.000728
same,solubility (mole fraction),"in ethanol, 333.15 K",0.000926
same,solubility (mole fraction),"in ethanol, 343.15 K",0.00164
same,solubility (mole fraction),"in methanol, 293.15 K",2.2e-05
same,solubility (mole fraction),"in methanol, 298.15 K",2.26e-05
same,solubility (mole fraction),"in methanol, 303.15 K",2.28e-05
same,solubility (mole fraction),"in methanol, 308.15 K",2.3e-05
same,solubility (mole fraction),"in methanol, 313.15 K",2.34e-05
same,solubility (mole fraction),"in methanol, 318.15 K",2.4e-05
same,solubility (mole fraction),"in methanol, 323.15 K",2.44e-05
same,solubility (mole fraction),"in water, 293.15 K",0.000904
same,solubility (mole fraction),"in water, 298.15 K",0.000906
same,solubility (mole fraction),"in water, 303.15 K",0.000908
same,solubility (mole fraction),"in water, 308.15 K",0.000909
same,solubility (mole fraction),"in water, 313.15 K",0.000911
same,solubility (mole fraction),"in water, 318.15 K",0.000912
same,solubility (mole fraction),"in water, 323.15 K",0.000913
same,solubility (mole fraction),"in water, 328.15 K",0.000915
same,solubility (mole fraction),"in water, 333.15 K",0.000916
same,solubility (mole fraction),"in water, 343.15 K",0.000918
